Assay results from patent US20110195432A1, “METHODS FOR THE SELECTION OF THERAPEUTIC TREATMENTS FOR CANCER” (priority 2008, published 2011).
Residues, ends and D or L forms follow the SMILES beside them. *: point of attachment. Cbz = O=C(OCc1ccccc1)*

Legend:
[1] = tested on: AR; experiment: Western blot of AR protein levels, VCaP cells; type: cell-based; conditions: TSA or increasing concentrations of CDDO-Imidazole (24 hours), compared with sulforaphane results
[2] = tested on: HDAC6; experiment: Western blot of HDAC6 protein levels, LNCaP cells; type: cell-based; conditions: LNCaP cells
[3] = tested on: acetylated alpha-tubulin; experiment: Western blot of acetylated alpha-tubulin, LNCaP cells; type: cell-based; conditions: LNCaP cells; increasing concentrations of CDDO-Imidazole, 24 hours
Experimental: (§1) The vehicle sample was set to 1.
LNCaP cells were transiently transfected with either a siRNA sequence complementary to the luciferase gene ([…]; SEQ ID NO: 8) or to HDAC6 ([…]; SEQ ID NO: 9) using DharmaFECT 3 transfection reagent for a final concentration of 100 nM (Dharmacon, Lafayette, Colo.). At 48, 72, and 96 hours post-transfection, cells were harvested. Levels of protein expression by Western blot were quantified.

[4] = tested on: HDAC6; experiment: Western blot of HDAC6 protein levels, VCaP cells; type: cell-based; conditions: increasing concentrations of CDDO-Imidazole, 24 hours
Text: as §1

[5] = tested on: acetylated tubulin; experiment: Western blot of acetylated tubulin, VCaP cells; type: cell-based; conditions: increasing concentrations of CDDO-Imidazole, 24 hours
Text: as §1

[6] = tested on: AR; experiment: Western blot of AR protein levels, LNCaP cells; type: cell-based; conditions: LNCaP cells
[7] = tested on: Her2Neu protein; conditions: breast cancer cells; through proteasomal degradation; cited from earlier work
[8] = tested on: AR; experiment: Western blot of AR protein levels, LNCaP cells; type: cell-based
Experimental: Immunoprecipitation and immunoblotting were performed as described (Qian et al., Clin. Cancer Res. 12:634-42, 2006). The following antibodies used in immunoblotting or immunoprecipitations (indicated dilutions are for immunoblotting): AR (1:1000, #06-680 Upstate, Billerica, Mass.); acetylated lysine (#05-515 Upstate, Billerica, Mass.); acetylated tubulin (1:2000, #T6793 Sigma, St. Louis, Mo.); alpha-tubulin (1:10,000, #T6074 Sigma, St. Louis, Mo.); beta-actin (1:5000, #A5441 Sigma, St. Louis, Mo.); ERG-1/2/3, (1:5000, #sc-354X Santa Cruz, Santa Cruz, Calif.); FLAG epitope (#F7425 Sigma, St. Louis, Mo.); GAPDH (1:5000, #sc-32233 Santa Cruz, Santa Cruz, Calif.); HDAC6 (1:1000, #sc-11420 Santa Cruz); HSP90 (1:1000, #SPA-840 Stressgen, Ann Arbor, Mich.); mouse IgG (#sc-2025 Santa Cruz, Santa Cruz, Calif.). The following secondary antibodies were used: ECL-conjugated anti-mouse IgG, (1:5000, #A6782 Sigma, St. Louis, Mo.); ECL-conjugated anti-rabbit IgG (1:3000, #NA934 Amersham, Piscataway, N.J. or 1:10,000, #sc-2004 Santa Cruz, Santa Cruz, Calif.). X-ray exposures were scanned as uncompressed images and bands were quantified by densitometry with Quantity One software (Bio-Rad, Hercules, Calif.). Intensity values were normalized to those of the endogenous controls. The vehicle sample was set to 1. Enrichment was calculated as: (intensity IP/intensity input)/(intensity IgG/intensity input) or intensity IP/input (FIG. 1B).
LNCaP cells were treated with sulforaphane in a dose-response (5 μM to 20 μM) and time-course (12 and 24 hours) manner to investigate the effect of HDAC6 inhibition on AR protein levels. Western blotting was performed as described in Example 1. […]

[9] = tested on: AR; experiment: Real-time PCR of AR gene expression, LNCaP cells; type: cell-based; conditions: increasing doses of sulforaphane, or TSA, vehicle set to 1
Text: (§2) All samples were run in triplicate. The vehicle-treated sample was set to 1.

[10] = tested on: AR; experiment: Real-time PCR of AR gene expression, VCaP cells; type: cell-based; conditions: 24 hours, increasing doses of sulforaphane, or TSA, vehicle set to 1
Text: as §2

Compound: CC1(C)CC[C@]2(C(=O)n3ccnc3)CC[C@]3(C)[C@H](C(=O)C=C4[C@@]5(C)C=C(C#N)C(=O)C(C)(C)[C@@H]5CC[C@]43C)[C@@H]2C1 [CDDO-Imidazole]
- AR protein levels [1]: reduced AR protein levels
- HDAC6 protein ([2]; increasing concentrations of CDDO-Imidazole, 24 hours): depletes HDAC6 in a dose-dependent manner
- tubulin acetylation [3]: increased tubulin acetylation
- HDAC6 protein [4]: depletes HDAC6 in a dose-dependent manner
- tubulin acetylation [5]: increased tubulin acetylation
- AR protein levels ([6]; TSA or increasing concentrations of CDDO-Imidazole (24 hours), compared with sulforaphane results): reduced AR protein levels
- Her2Neu protein levels [7]: deplete Her2Neu protein levels

Compound: CC(/C=C/C(=O)NO)=C\[C@@H](C)C(=O)c1ccc(N(C)C)cc1 [TSA, trichostatin A]
- AR steady state level with simultaneous MG132 treatment ([8]; 24 hours, sulforaphane 20 μM or 300 nM TSA with 10 μM MG132): restored the AR steady state level close to that seen in the vehicle-treated control
- AR protein in the absence of MG132 ([8]; 24 hours, sulforaphane 20 μM or 300 nM TSA, versus vehicle-treated cells): dramatic reductions
- AR protein levels at 24 hours ([8]; sulforaphane 15 μM and 20 μM, TSA): recovered
- AR transcripts [9]: suppressed AR transcripts
- AR transcripts [10]: suppressed AR transcripts
- HDAC6 protein levels ([2]; 16 hours, 300 nM TSA without or with 20 μM MG132): minimal effects

Compound: CC(C)C[C@@H](C=O)NC(=O)[C@H](CC(C)C)NC(=O)[C@H](CC(C)C)NC(=O)OCc1ccccc1 [MG132] (Cbz-Leu-Leu-Leu-aldehyde)
- AR protein levels, MG132 alone ([6]; 24 hours, 10 μM MG132 versus vehicle): did not change AR protein levels
